Source: ChEMBL document CHEMBL2074094 (Arch Biochem Biophys, 1998)

How the values were obtained:
[1] = biological target: ATP-dependent translocase ABCB1 (Homo sapiens, UniProt P08183); test: TP_TRANSPORTER: transepithelial transport (basal to apical) in MDR1-expressing LLC-PK1 cells; type: functional, cell-based; settings: pig
[2] = biological target: T1, ATP-dependent translocase ABCB1 (Mus musculus, UniProt P21447); test: TP_TRANSPORTER: transepithelial transport (basal to apical) in mdr1a-expressing LLC-PK1 cell; type: functional, cell-based; settings: pig
T1 sequence (P21447 whole entry): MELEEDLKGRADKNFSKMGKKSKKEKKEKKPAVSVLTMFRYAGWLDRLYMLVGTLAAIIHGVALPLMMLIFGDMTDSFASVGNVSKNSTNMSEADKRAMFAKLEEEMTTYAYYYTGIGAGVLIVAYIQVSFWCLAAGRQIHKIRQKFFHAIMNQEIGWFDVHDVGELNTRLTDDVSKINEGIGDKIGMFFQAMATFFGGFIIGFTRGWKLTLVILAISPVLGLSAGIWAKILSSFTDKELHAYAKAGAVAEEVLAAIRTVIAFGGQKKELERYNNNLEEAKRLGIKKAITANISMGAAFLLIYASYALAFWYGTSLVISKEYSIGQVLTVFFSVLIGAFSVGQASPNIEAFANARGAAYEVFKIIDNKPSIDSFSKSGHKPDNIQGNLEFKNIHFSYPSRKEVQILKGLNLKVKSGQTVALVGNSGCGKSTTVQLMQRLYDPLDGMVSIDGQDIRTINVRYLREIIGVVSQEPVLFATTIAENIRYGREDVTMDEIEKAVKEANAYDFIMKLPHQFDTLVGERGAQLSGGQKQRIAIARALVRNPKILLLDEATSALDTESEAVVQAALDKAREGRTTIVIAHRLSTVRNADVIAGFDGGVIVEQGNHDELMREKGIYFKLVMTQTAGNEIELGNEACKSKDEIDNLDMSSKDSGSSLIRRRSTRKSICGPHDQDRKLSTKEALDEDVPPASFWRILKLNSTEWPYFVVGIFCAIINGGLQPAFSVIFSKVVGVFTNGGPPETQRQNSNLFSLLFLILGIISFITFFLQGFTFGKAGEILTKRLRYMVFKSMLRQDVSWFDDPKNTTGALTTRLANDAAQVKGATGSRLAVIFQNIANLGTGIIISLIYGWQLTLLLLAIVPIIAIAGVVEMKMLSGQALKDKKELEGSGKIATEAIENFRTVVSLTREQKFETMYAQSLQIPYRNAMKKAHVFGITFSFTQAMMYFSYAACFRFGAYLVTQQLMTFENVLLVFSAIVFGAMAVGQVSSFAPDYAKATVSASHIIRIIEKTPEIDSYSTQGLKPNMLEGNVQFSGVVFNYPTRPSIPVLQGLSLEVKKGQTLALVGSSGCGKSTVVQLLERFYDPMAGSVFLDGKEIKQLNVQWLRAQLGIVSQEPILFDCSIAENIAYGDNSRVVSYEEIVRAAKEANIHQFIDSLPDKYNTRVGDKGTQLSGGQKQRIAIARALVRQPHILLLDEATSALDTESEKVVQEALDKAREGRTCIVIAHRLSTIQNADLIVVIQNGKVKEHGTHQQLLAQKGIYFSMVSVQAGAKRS

[3] = biological target: T1, ATP-dependent translocase ABCB1; test: TP_TRANSPORTER: tissue concentration in mdr1a(-/-) mouse; type: functional, organism-based; settings: in vivo

Chain of ATP-dependent translocase ABCB1 (Homo sapiens, UniProt P08183) (P08183 whole entry): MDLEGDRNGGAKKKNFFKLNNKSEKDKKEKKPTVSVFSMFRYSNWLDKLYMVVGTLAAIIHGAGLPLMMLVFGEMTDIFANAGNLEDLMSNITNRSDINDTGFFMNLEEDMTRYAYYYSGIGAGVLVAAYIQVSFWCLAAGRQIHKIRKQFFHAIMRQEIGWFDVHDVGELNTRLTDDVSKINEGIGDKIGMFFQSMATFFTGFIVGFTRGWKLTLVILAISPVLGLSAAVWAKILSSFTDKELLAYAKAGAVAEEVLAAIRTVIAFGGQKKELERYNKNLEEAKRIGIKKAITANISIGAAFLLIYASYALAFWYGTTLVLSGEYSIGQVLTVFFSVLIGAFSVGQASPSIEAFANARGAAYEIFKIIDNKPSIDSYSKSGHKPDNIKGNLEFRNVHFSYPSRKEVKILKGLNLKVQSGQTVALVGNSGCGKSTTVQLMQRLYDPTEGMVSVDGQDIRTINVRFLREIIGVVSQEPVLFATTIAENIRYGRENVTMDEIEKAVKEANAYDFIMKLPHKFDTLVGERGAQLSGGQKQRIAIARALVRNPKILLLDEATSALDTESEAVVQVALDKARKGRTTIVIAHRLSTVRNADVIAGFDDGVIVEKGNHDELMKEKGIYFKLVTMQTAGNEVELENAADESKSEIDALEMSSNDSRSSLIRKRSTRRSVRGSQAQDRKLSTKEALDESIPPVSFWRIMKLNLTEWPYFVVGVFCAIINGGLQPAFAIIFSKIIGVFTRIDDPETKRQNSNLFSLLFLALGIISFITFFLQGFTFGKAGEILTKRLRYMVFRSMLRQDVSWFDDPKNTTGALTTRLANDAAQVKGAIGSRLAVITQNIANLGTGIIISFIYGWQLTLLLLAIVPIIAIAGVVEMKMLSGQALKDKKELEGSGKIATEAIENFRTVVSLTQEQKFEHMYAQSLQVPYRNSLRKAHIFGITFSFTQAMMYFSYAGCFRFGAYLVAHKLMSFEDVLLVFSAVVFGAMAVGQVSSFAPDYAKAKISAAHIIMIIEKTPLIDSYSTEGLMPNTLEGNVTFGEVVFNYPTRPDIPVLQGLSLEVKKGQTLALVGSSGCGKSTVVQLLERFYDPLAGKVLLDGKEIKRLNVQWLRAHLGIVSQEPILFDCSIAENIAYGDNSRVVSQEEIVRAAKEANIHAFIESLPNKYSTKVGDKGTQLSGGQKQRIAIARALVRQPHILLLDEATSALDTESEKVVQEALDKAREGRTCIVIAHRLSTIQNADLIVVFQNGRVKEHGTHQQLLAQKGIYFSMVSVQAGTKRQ

Row | Activity [3] | Structure (SMILES) | Activity [1] | Activity [2]
1 | – | c1ccc2c(c1)cc1ccc3cccc4ccc2c1c34 | is not a substrate [-] | is not a substrate [-]
2 | is not a substrate [-] | CC1=C(/C=C/C(C)=C/C=C/C(C)=C/C(=O)O)C(C)(C)CCC1 [TRETINOIN] | is not a substrate [-] | is not a substrate [-]
